The values below come from publication PMC12409580, “Modulating Receptor Activity, Immune Response, and Kinetic Solubility: The Impact of Linker Chemistry in Conjugated NOD2/TLR4 Agonists” (ACS Omega, 2025).

Converted amounts (≈) assume the structure as drawn.

For one data set, the target named is NOD2 (Homo sapiens, UniProt Q9HC29). The data set can be described thus: NOD2 NF-κB SEAP reporter assay in HEK-Blue hNOD2 cells. Conditions: for NOD2 activation at 10 μM, fold increase: 18 h, NF-κB transcriptional activity (SEAP) relative to 0.1% DMSO. In general terms: Reporter assays use an easily measured gene product as a stand-in for the process of interest.
Sequence of NOD2 (Q9HC29 whole entry): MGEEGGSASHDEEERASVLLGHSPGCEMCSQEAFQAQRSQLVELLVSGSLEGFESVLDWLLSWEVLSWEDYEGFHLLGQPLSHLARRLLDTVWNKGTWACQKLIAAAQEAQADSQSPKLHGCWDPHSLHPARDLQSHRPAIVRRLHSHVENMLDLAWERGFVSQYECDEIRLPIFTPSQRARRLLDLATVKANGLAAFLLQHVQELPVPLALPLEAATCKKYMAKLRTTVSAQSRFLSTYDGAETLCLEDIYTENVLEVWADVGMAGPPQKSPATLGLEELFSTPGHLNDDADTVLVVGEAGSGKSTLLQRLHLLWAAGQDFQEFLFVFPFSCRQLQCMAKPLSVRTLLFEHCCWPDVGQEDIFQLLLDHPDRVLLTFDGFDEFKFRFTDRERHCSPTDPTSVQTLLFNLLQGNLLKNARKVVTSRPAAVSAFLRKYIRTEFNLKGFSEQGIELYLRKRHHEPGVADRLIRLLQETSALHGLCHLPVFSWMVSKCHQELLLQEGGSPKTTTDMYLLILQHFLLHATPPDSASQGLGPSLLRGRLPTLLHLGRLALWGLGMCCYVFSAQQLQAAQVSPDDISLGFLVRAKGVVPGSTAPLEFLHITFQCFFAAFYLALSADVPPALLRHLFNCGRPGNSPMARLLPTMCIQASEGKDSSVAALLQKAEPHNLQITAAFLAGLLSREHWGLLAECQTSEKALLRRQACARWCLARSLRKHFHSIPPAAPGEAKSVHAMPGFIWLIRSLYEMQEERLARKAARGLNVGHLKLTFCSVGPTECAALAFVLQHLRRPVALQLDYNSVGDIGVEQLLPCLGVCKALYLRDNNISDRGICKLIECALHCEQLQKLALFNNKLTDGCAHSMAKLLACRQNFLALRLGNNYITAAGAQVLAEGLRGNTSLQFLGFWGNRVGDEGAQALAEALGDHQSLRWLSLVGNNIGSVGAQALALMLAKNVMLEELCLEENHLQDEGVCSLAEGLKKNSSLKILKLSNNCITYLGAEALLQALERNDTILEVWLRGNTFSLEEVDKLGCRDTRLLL

The next data set has as its target TLR4 (Homo sapiens, UniProt O00206+Q9Y6Y9). Kind of data set: TLR4 NF-κB SEAP reporter assay in HEK-Blue hTLR4 cells. Conditions: for TLR4 activation at 10 μM, fold increase / TLR4 activation at 100 μM, fold increase: 18 h, NF-κB transcriptional activity (SEAP) relative to 0.1% DMSO; for concentration at which compound activated TLR4: dose-response 0.5–10 μM (17–21) or 1–100 μM (27–31); for maximum TLR4 activation: HEK-Blue hTLR4, 21 at 10 μM.

Data set [1] can be described thus: Kinetic solubility in PBS (HPLC solubility assay). Conditions: aqueous buffer, kinetic from dmso stock.
The mark [2] stands for this setting: Average solubility, Tables S1–S3, average of two samples.
Setting [3] is: Solubility sample 1, Tables S1–S3, replicate 1.
Setting [4] is: Solubility sample 2, Tables S1–S3, replicate 2.
[5] abbreviates: solubility in PBS, kinetic solubility, HPLC solubility assay.
Where [6] appears, read: PBS, Solubility sample 1, Tables S1–S3, replicate 1.
Where [7] appears, read: PBS, Solubility sample 2, Tables S1–S3, replicate 2.
Setting [8] is: PBS, solubility in PBS, kinetic solubility, HPLC solubility assay.
The mark [9] stands for this setting: PBS, Average solubility, Tables S1–S3, average of two samples.

Sequence of TLR4 (O00206 24-839): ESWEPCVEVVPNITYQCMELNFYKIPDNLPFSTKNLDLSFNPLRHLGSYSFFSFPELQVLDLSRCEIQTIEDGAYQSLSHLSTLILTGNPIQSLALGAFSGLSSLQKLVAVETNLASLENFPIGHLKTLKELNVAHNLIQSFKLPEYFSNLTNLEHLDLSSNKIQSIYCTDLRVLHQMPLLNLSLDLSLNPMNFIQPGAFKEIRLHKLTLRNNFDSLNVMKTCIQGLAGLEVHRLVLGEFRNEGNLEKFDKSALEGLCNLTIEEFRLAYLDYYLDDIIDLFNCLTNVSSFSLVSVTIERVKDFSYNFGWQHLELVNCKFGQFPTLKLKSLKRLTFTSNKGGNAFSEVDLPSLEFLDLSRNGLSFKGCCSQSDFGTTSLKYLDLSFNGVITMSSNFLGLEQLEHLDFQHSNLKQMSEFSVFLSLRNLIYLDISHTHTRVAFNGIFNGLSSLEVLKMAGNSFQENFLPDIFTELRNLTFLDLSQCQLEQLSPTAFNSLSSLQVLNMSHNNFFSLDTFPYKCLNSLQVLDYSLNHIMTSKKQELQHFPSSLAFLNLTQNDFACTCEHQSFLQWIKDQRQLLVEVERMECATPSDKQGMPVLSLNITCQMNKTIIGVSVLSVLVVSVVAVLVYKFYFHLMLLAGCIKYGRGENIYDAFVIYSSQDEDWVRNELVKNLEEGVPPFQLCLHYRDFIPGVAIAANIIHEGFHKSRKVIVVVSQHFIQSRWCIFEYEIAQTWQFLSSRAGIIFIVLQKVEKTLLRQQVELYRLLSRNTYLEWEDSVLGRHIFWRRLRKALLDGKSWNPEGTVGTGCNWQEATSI
Sequence of TLR4 (Q9Y6Y9 17-160 limits assumed): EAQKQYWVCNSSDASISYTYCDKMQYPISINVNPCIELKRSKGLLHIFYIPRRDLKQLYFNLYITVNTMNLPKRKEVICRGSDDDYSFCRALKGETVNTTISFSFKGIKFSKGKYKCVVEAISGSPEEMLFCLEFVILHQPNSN

The solubility is how much of the substance goes into solution per volume. Read a low solubility as little dissolved substance. Regarding `CCOC(=O)[C@H](CCC(=O)NCCCCCCNC(=O)CSc1nc2c([nH]c3ccccc32)c(=O)n1-c1ccccc1)NC(=O)[C@H](NC(=O)CNC(=O)/C=C/c1ccc(O)c(OC)c1)C(C)C` [Compound 28, Ethyl N ^2-((E)-3-(4-Hydroxy-3-methoxyphenyl)acryloyl)glycyl-D-valyl-N ^5-(6-(2-((4-oxo-3-phenyl-4,5-dihydro-3H-pyrimido[5,4-b]indol-2-yl)thio)acetamido)hexyl)-L-glutaminate], the “NOD2 activation at 10 μM, fold increase” value at NOD2 is listed as 1.65 fold increase. In addition, the “TLR4 activation at 10 μM, fold increase” value at TLR4 (10 μM) is listed as 1.06 fold increase. Besides, the “TLR4 activation at 100 μM, fold increase” value at TLR4 is recorded as 1.72 fold increase. In addition, the solubility was found to be 80 µM (≈ 75.1 µg/mL) in data set [1] (setting [2]), 115 µM (≈ 108 µg/mL) in data set [1] (setting [3]), 80.7 µM (≈ 75.8 µg/mL) in data set [1] (setting [4]) and 80 µM (≈ 75.1 µg/mL) in data set [1] (setting [5]).
Turning to `CCOC(=O)[C@H](CCC(=O)NCCOCCOCCNC(=O)Cc1ccc(C(C(=O)NC2CCCC2)N(C(=O)c2cc(-c3ccccc3)n(-c3ccccc3)n2)c2ccc3c(c2)CCC3)cc1)NC(=O)[C@H](NC(=O)CNC(=O)/C=C/c1ccc(O)c(OC)c1)C(C)C` (stereo partly drawn) [Compound 19, Ethyl (16S)-1-(4-(2-(Cyclopentylamino)-1-(N-(2,3-dihydro-1H-inden-5-yl)-1,5-diphenyl-1H-pyrazole-3-carboxamido)-2-oxoethyl)phenyl)-16-((R)-2-(2-((E)-3-(4-hydroxy-3-methoxyphenyl)acrylamido)acetamido)-3-methylbutanamido)-2,13-dioxo-6,9-dioxa-3,12-diazaheptadecan-17-oate], the “NOD2 activation at 10 μM, fold increase” value at NOD2 stood at 3.06 fold increase. In addition, the “TLR4 activation at 10 μM, fold increase” value at TLR4 (10 μM) came to 2.78 fold increase. The “concentration at which compound activated TLR4” value at TLR4 worked out at 5 µM. Moreover, the solubility is 2.59 µM (≈ 3.26 µg/mL) in data set [1] (setting [6]), 1.68 µM (≈ 2.11 µg/mL) in data set [1] (setting [7]) and 2.14 µM (≈ 2.69 µg/mL) in data set [1] (setting [8]).
Consider `O=C(O)CSc1nc2c([nH]c3ccccc32)c(=O)n1-c1ccccc1` [Compound 6, reference compound], for which the “TLR4 activation at 10 μM, fold increase” value on TLR4 (10 μM) turned out to be 1.22 fold increase. Also, the “TLR4 activation at 100 μM, fold increase” value at TLR4 is recorded as 3.10 fold increase. Besides, the “maximum TLR4 activation” value at TLR4 was found to be 3.10 fold. Besides, the solubility in data set [1] (setting [9]) stood at 254 µM (≈ 89.3 µg/mL); in data set [1] (setting [6]) it was 270 µM (≈ 94.8 µg/mL); in data set [1] (setting [7]) it was 238 µM (≈ 83.7 µg/mL); in data set [1] (setting [8]), 254 µM (≈ 89.3 µg/mL).
On to `CCOC(=O)[C@@H](CCC(=O)NCCCOCCOCCOCCCNC(=O)Cc1ccc(C(C(=O)NC2CCCC2)N(C(=O)c2cc(-c3ccccc3)n(-c3ccccc3)n2)c2ccc3c(c2)CCC3)cc1)NC(=O)[C@@H](NC(=O)CNC(=O)/C=C/c1ccc(O)c(OC)c1)C(C)C` (stereo partly drawn) [Compound 20, Ethyl (21R)-1-(4-(2-(Cyclopentylamino)-1-(N-(2,3-dihydro-1H-inden-5-yl)-1,5-diphenyl-1H-pyrazole-3-carboxamido)-2-oxoethyl)phenyl)-21-((S)-2-(2-((E)-3-(4-hydroxy-3-methoxyphenyl)acrylamido)acetamido)-3-methylbutanamido)-2,18-dioxo-7,10,13-trioxa-3,17-diazadocosan-22-oate], for which the “NOD2 activation at 10 μM, fold increase” value at NOD2 is given as 3.53 fold increase. For the same compound, the “NOD2 agonist activity” value at NOD2 (compared with NOD2 agonist 3 and MDP (4 μM)) is on record as “comparable efficiency to MDP”. Further, the “TLR4 activation at 10 μM, fold increase” value at TLR4 (10 μM) was found to be 2.68 fold increase. At TLR4, the “concentration at which compound activated TLR4” value was 5 µM. Besides, the solubility came out at 1.61 µM (≈ 2.14 µg/mL) in data set [1] (setting [6]), 1.38 µM (≈ 1.84 µg/mL) in data set [1] (setting [7]) and 1.5 µM (≈ 2 µg/mL) in data set [1] (setting [8]).
Consider `CCOC(=O)[C@H](CCC(=O)NCCNC(=O)CSc1nc2c([nH]c3ccccc32)c(=O)n1-c1ccccc1)NC(=O)[C@H](NC(=O)CNC(=O)/C=C/c1ccc(O)c(OC)c1)C(C)C` [Compound 27, Ethyl N ^2-((E)-3-(4-Hydroxy-3-methoxyphenyl)acryloyl)glycyl-D-valyl-N ^5-(2-(2-((4-oxo-3-phenyl-4,5-dihydro-3H-pyrimido[5,4-b]indol-2-yl)thio)acetamido)ethyl)-L-glutaminate], for which the “NOD2 activation at 10 μM, fold increase” value at NOD2 was determined as 2.17 fold increase. The “TLR4 activation at 10 μM, fold increase” value on TLR4 (10 μM) came to 1.06 fold increase. The “TLR4 activation at 100 μM, fold increase” value on TLR4 is reported as 2.60 fold increase. In addition, the solubility in data set [1] (setting [2]) turned out to be 310 µM (≈ 274 µg/mL); in data set [1] (setting [3]), 322 µM (≈ 284 µg/mL); in data set [1] (setting [4]), 298 µM (≈ 264 µg/mL); in data set [1] (setting [5]), 310 µM (≈ 274 µg/mL).
In the case of `CCOC(=O)[C@H](CCC(=O)NCCOCCOCCNC(=O)CSc1nc2c([nH]c3ccccc32)c(=O)n1-c1ccccc1)NC(=O)[C@H](NC(=O)CNC(=O)/C=C/c1ccc(O)c(OC)c1)C(C)C` [Compound 29, Ethyl (S)-16-((R)-2-(2-((E)-3-(4-Hydroxy-3-methoxyphenyl)acrylamido)acetamido)-3-methylbutanamido)-2,13-dioxo-1-((4-oxo-3-phenyl-4,5-dihydro-3H-pyrimido[5,4-b]indol-2-yl)thio)-6,9-dioxa-3,12-diazaheptadecan-17-oate], the “NOD2 activation at 10 μM, fold increase” value at NOD2 is 1.60 fold increase. Moreover, the “TLR4 activation at 10 μM, fold increase” value on TLR4 (10 μM) turned out to be 1.00 fold increase. Besides, on TLR4, the “TLR4 activation at 100 μM, fold increase” value was 1.43 fold increase. The solubility in data set [1] (setting [2]) was 238 µM (≈ 231 µg/mL); in data set [1] (setting [3]) it was 232 µM (≈ 225 µg/mL); in data set [1] (setting [4]), 244 µM (≈ 237 µg/mL); in data set [1] (setting [5]), 238 µM (≈ 231 µg/mL).
Regarding `CCOC(=O)[C@H](CCC(=O)NCCCCCCNC(=O)Cc1ccc(C(C(=O)NC2CCCC2)N(C(=O)c2cc(-c3ccccc3)n(-c3ccccc3)n2)c2ccc3c(c2)CCC3)cc1)NC(=O)[C@@H](NC(=O)CNC(=O)/C=C/c1ccc(O)c(OC)c1)C(C)C` (stereo partly drawn) [Compound 18, Ethyl N ^5-(6-(2-(4-(2-(Cyclopentylamino)-1-(N-(2,3-dihydro-1H-inden-5-yl)-1,5-diphenyl-1H-pyrazole-3-carboxamido)-2-oxoethyl)phenyl)acetamido)hexyl)-N ^2-((E)-3-(4-hydroxy-3-methoxyphenyl)acryloyl)glycyl-L-valyl-D-glutaminate], the “NOD2 activation at 10 μM, fold increase” value on NOD2 is reported as 2.43 fold increase. In addition, the “TLR4 agonism” value at TLR4 (10 μM) is reported as “weak TLR4 agonism”. For the same compound, the “TLR4 activation at 10 μM, fold increase” value at TLR4 (10 μM) came out at 1.46 fold increase. Besides, the solubility was found to be 0.85 µM (≈ 1.04 µg/mL) in data set [1] (setting [6]), 1.17 µM (≈ 1.43 µg/mL) in data set [1] (setting [7]) and 1.01 µM (≈ 1.24 µg/mL) in data set [1] (setting [8]).
As to `CCOC(=O)[C@@H](CCC(=O)NCCCOCCOCCOCCCNC(=O)CSc1nc2c([nH]c3ccccc32)c(=O)n1-c1ccccc1)NC(=O)[C@@H](NC(=O)CNC(=O)/C=C/c1ccc(O)c(OC)c1)C(C)C` [Compound 30, Ethyl (R)-21-((S)-2-(2-((E)-3-(4-Hydroxy-3-methoxyphenyl)acrylamido)acetamido)-3-methylbutanamido)-2,18-dioxo-1-((4-oxo-3-phenyl-4,5-dihydro-3H-pyrimido[5,4-b]indol-2-yl)thio)-7,10,13-trioxa-3,17-diazadocosan-22-oate], the “NOD2 activation at 10 μM, fold increase” value at NOD2 came to 1.55 fold increase. Further, the “TLR4 activation at 10 μM, fold increase” value at TLR4 (10 μM) is 1.05 fold increase. Further, the “TLR4 activation at 100 μM, fold increase” value at TLR4 was 1.36 fold increase. Further, the solubility in data set [1] (setting [2]) worked out at 122 µM (≈ 128 µg/mL); in data set [1] (setting [3]), 124 µM (≈ 129 µg/mL); in data set [1] (setting [4]), 121 µM (≈ 126 µg/mL); in data set [1] (setting [5]), 122 µM (≈ 128 µg/mL).
Regarding `O=C(O)Cc1ccc(C(C(=O)NC2CCCC2)N(C(=O)c2cc(-c3ccccc3)n(-c3ccccc3)n2)c2ccc3c(c2)CCC3)cc1` (stereo not drawn) [Compound 4, reference compound], the “TLR4 activation at 10 μM, fold increase” value on TLR4 (10 μM) was found to be 7.23 fold increase. Moreover, the “maximum TLR4 activation” value on TLR4 is 7.23 fold. The solubility turned out to be 238 µM (≈ 152 µg/mL) in data set [1] (setting [9]), 249 µM (≈ 159 µg/mL) in data set [1] (setting [6]), 226 µM (≈ 145 µg/mL) in data set [1] (setting [7]) and 238 µM (≈ 152 µg/mL) in data set [1] (setting [8]).
